By IC50 is commonly meant the concentration at which inhibition is half-maximal.

The target in one test is T1, ULK2 kinase (Homo sapiens, UniProt Q8IYT8).
T1 construct: (residues 1-306 with N-terminal GST and His tag; ID NO: 2); purchased Signal Chem U02-11G
The experiment in a line: Biochemical assay for ULK2 (coupled pyruvate kinase/lactate dehydrogenase assay). The settings on record: 1 mM ATP, 1 nM ULK2; read-out: ULK2 (inhibition of biochemical activity), IC50. A digest of the protocol: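 Continuous PK/LDH-coupled NADH oxidation assay (A340) with 1 nM ULK2, 200 μM ULKtide and 1 mM ATP in Tris pH 7.5, 15 mM MgCl2, 1% DMSO, read 6 h at 30° C. Rates from the 2-3 h window converted to percent inhibition against no-compound and known-inhibitor controls; IC50 by four-parameter sigmoidal fit.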

Test [1] has as its system ULK kinase substrate ATG13 (pS318-ATG13) in A549 (KRAS mutant) cells. The experiment in a line: pATG13 levels of mutant KRas A549 cells after treatment with ULK inhibitors in combination with trametinib (ELISA). It is filed as cell-based, human. The method in brief:
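A549 cells grown overnight were treated with a test-compound dose response plus trametinib at 250 nM final (or DMSO) overnight at 37° C. Lysates were assayed by total-ATG13 capture and biotinylated pS318-ATG13 detection ELISA (450 nm minus 540 nm background); % phosphorylation versus controls gave IC50 values.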

T1 sequence (Q8IYT8 with tags, fused parts or gaps): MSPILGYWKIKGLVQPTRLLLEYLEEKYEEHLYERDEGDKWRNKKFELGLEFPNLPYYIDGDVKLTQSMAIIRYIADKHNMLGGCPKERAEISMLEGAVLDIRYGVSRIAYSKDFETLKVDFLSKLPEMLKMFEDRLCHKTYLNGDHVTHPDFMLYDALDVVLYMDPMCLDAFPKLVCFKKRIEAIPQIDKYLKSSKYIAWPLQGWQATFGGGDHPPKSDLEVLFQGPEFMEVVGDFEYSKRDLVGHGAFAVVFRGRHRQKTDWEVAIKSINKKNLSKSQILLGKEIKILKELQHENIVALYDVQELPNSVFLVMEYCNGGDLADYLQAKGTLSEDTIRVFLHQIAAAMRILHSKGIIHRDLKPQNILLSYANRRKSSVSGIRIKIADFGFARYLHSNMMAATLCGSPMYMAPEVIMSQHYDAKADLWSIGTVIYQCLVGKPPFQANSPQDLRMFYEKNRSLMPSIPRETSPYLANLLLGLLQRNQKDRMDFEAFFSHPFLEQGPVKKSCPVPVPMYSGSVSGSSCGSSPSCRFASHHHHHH

In the case of `CC/C(Nc1cn(C(C)C)nn1)=C1/C(=O)Nc2ccc(C(=O)NCC(F)(F)F)cc21` [Example 122], the 50% inhibitory concentration (IC50) is 10 to 100 nM at ULK2 kinase and more than 600 nM in test [1].
As to `CC/C(Nc1cnn(C2CCN(C(C)C)CC2)c1)=C1/C(=O)Nc2ccc(C(C)=O)cc21` [Example 123], the half-inhibitory concentration (IC50) on ULK2 kinase was in the range of 100 to 500 nM; in test [1] it was 100 to 300 nM.
For `CC/C(Nc1cccnc1)=C1/C(=O)Nc2ccc(C(=O)NCC(F)(F)F)cc21` [Example 124] the same measures were more than 500 nM and more than 600 nM.
As to `CC/C(Nc1cnn(C(C)C)c1)=C1/C(=O)Nc2ccc(C(=O)N(C)CC(F)(F)F)cc21` [Example 125], the IC50 on ULK2 kinase fell in the range of 10 to 100 nM; in test [1] it was 300 to 600 nM.
On the same counts, the results for `CC/C(Nc1cnn(C(C)C)c1)=C1/C(=O)Nc2ccc(C(=O)NCCOC)cc21` [Example 126] are 100 to 500 nM and 300 to 600 nM.
With `CC/C(Nc1cnn(C(C)C)c1)=C1/C(=O)Nc2ccc(C(=O)NCCC#N)cc21` [Example 127], the IC50 at ULK2 kinase is 10 to 100 nM; in test [1], more than 600 nM.
For `CC/C(Nc1cnn(C(C)C)c1)=C1/C(=O)Nc2ccc(C(=O)NC[C@@H](C)OC)cc21` [Example 128] the same measures were 100 to 500 nM and 300 to 600 nM.
With `CC/C(Nc1cnn(C(C)C)c1)=C1/C(=O)Nc2ccc(C(=O)NCC(C)C)cc21` [Example 130], the IC50 was 10 to 100 nM at ULK2 kinase and not above 100 nM in test [1].
For `CC/C(Nc1cnn(C(C)C)c1)=C1/C(=O)Nc2ccc(C(=O)NCC3CC(F)(F)C3)cc21` [Example 134], the IC50 is 10 to 100 nM at ULK2 kinase and not above 100 nM in test [1].
Turning to `CC/C(Nc1cnn(C(C)C)c1)=C1/C(=O)Nc2ccc(C(=O)NCC(C)(C)F)cc21` [Example 135], the IC50 at ULK2 kinase is 10 to 100 nM; in test [1], not above 100 nM.
`CC/C(Nc1cnn(C(C)C)c1)=C1/C(=O)Nc2ccc(C(=O)NCCOC(F)(F)F)cc21` [Example 136]: the IC50 on ULK2 kinase was in the range of 10 to 100 nM; in test [1] it was 100 to 300 nM.
For the molecule `CC/C(Nc1cnn(C(C)C)c1)=C1/C(=O)Nc2ccc(C(=O)NCC3CCC(C)(C)O3)cc21` (stereo not drawn) [Example 137], the IC50 at ULK2 kinase lay within 10 to 100 nM; in test [1] it was 300 to 600 nM.
As to `CC/C(Nc1cnn(C(C)C)c1)=C1/C(=O)Nc2ccc(C(=O)NCC3CCC4(CCC4)O3)cc21` (stereo not drawn) [Example 138], the IC50 at ULK2 kinase was 100 to 500 nM; in test [1] it was more than 600 nM.
As to `CC/C(Nc1cnn(C(C)C)c1)=C1/C(=O)Nc2ccc(C(=O)NCC3(C(F)(F)F)CC3)cc21` [Example 140], the IC50 at ULK2 kinase is 10 to 100 nM; in test [1], not above 100 nM.
For `CC/C(Nc1ccc2nn(C(C)C)cc2c1)=C1/C(=O)Nc2ccc(C(=O)NCC(F)(F)F)cc21` [Example 142], the concentration for half-maximal inhibition (IC50) was 10 to 100 nM on ULK2 kinase and 300 to 600 nM in test [1].
For the molecule `CC/C(Nc1cnn(C2CC(F)(F)C2)c1)=C1/C(=O)Nc2ccc(C(=O)NCC(F)(F)F)cc21` [Example 144], the values for the IC50 (at ULK2 kinase; in test [1]) were 10 to 100 nM and not above 100 nM, respectively.
As for `CC/C(Nc1ccccn1)=C1/C(=O)Nc2ccc(C(=O)NCC(F)(F)F)cc21` [Example 145], the half-maximal inhibitory concentration (IC50) lay within 100 to 500 nM at ULK2 kinase and 100 to 300 nM in test [1].
For `CC/C(Nc1cnn(C(F)F)c1)=C1/C(=O)Nc2ccc(C(=O)NCC(C)C)cc21` [Example 147] the same measures were 100 to 500 nM and 100 to 300 nM.
As to `CC/C(Nc1cnn(C(C)C)c1)=C1/C(=O)Nc2ccc(C(=O)NCC(C)(C)OC)cc21` [Example 148], the results for the concentration for half-maximal inhibition (IC50) (at ULK2 kinase; in test [1]) were 100 to 500 nM and 100 to 300 nM, respectively.
For the molecule `CC/C(Nc1cc(C(F)(F)F)ccn1)=C1/C(=O)Nc2ccc(C(=O)NCC(F)(F)F)cc21` [Example 149], the IC50 at ULK2 kinase fell in the range of 10 to 100 nM; in test [1], 100 to 300 nM.
On the same counts, the results for `CC/C(Nc1cnn(C(C)C)c1)=C1/C(=O)Nc2ccc(C(=O)NCC3(F)CC3)cc21` [Example 152] are not above 10 nM and not above 100 nM.
As to `CC/C(Nc1cnn(CC)c1)=C1/C(=O)Nc2ccc(C(=O)NCC3(F)CC3)cc21` [Example 153], the figures for the IC50 (at ULK2 kinase; in test [1]) were not above 10 nM and not above 100 nM, respectively.
With `CC/C(Nc1cnn(C)c1)=C1/C(=O)Nc2ccc(C(=O)NCC3(F)CC3)cc21` [Example 154], the half-maximal inhibitory concentration (IC50) on ULK2 kinase is 10 to 100 nM; in test [1], not above 100 nM.
Turning to `CC/C(Nc1cnn(C(C)C)c1)=C1/C(=O)Nc2ccc(C(=O)NCC3(C#N)CC3)cc21` [Example 156], the results for the IC50 (on ULK2 kinase; in test [1]) were 10 to 100 nM and not above 100 nM, respectively.
For the molecule `CC/C(Nc1cnn(CC(C)OC)c1)=C1/C(=O)Nc2ccc(C(=O)NCC(F)(F)F)cc21` (stereo not drawn) [Example 157], the half-maximal inhibitory concentration (IC50) lay within 100 to 500 nM on ULK2 kinase and 100 to 300 nM in test [1].
`CC/C(Nc1cnn(CC(C)OC)c1)=C1/C(=O)Nc2ccc(C(=O)NCC(F)(F)F)cc21` (stereo not drawn) [Example 158]: the IC50 on ULK2 kinase was 100 to 500 nM; in test [1], 100 to 300 nM.
For the molecule `CC/C(Nc1cnn(C(C)CC)c1)=C1/C(=O)Nc2ccc(C(=O)NCC(F)(F)F)cc21` (stereo not drawn) [Example 159], the values for the IC50 (at ULK2 kinase; in test [1]) were 10 to 100 nM and 100 to 300 nM, respectively.
`CC/C(Nc1cnn(CC(F)(F)F)c1)=C1/C(=O)Nc2ccc(C(=O)NCC(C)(C)F)cc21` [Example 160]: the IC50 at ULK2 kinase was 10 to 100 nM; in test [1], 100 to 300 nM.
For `CC/C(Nc1cnn(CC(F)F)c1)=C1/C(=O)Nc2ccc(C(=O)NCC(C)(C)F)cc21` [Example 161] the same measures were 10 to 100 nM and not above 100 nM.
With `CC/C(Nc1cnn(C(C)C)c1)=C1/C(=O)Nc2ccc(C(=O)NCCC(F)(F)F)cc21` [Example 166], the IC50 is not above 10 nM at ULK2 kinase and not above 100 nM in test [1].
`CC/C(Nc1cnn(C(C)C)c1)=C1/C(=O)Nc2ccc(C(=O)NCC3(C)CCOC3)cc21` (stereo not drawn) [Example 168]: the half-inhibitory concentration (IC50) at ULK2 kinase lay within 10 to 100 nM; in test [1] it was 300 to 600 nM.
For `CC/C(Nc1cnn(C(F)(F)F)c1)=C1/C(=O)Nc2ccc(C(=O)NCC(C)C)cc21` [Example 169] the same measures were 10 to 100 nM and 100 to 300 nM.
Take `CC/C(Nc1cnn(C2CCOCC2)c1)=C1/C(=O)Nc2ccc(C(=O)NCC(C)(C)F)cc21` [Example 173]: the IC50 was not above 10 nM at ULK2 kinase and not above 100 nM in test [1].
